Experimental data as given in patent publication US20100004259A1, “Tartrate Salt of (7S)-7-[(5-Fluoro-2-Methyl-Benzyl)oxy]-2-[(2R)-2-Methylpiperazin-1-YL]-6,7-Dihydro-5H-Cyclopenta[B]Pyridine” (Pfizer Inc., priority 2006, published 2010).

Columns and labels:
[1] = hygroscopicity by dynamic vapor sorption; format: physicochemical
Protocol: Hygroscopicity was assessed using a dynamic vapor sorption technique in which an accurately weighed sample is subjected to progressively changing water vapor pressure while simultaneously recording the weight change. The experiment was conducted isothermally at 25° C.
Less than 0.5% increase in weight was detected at 90±2% relative humidity during an isothermal (25.1±0.1° C.) moisture sorption analysis conducted from approximately 1% to 90% (±2%) humidity. […] The amount of water vapor sorption may vary depending on the particle size and surface area of sample.

[2] = target: T1, 5HT2a (Homo sapiens, UniProt P28223); experiment: receptor binding assay at human 5HT2a receptor; conditions: an amorphous salt of Formula I was tested
T1 sequence (P28223 whole entry): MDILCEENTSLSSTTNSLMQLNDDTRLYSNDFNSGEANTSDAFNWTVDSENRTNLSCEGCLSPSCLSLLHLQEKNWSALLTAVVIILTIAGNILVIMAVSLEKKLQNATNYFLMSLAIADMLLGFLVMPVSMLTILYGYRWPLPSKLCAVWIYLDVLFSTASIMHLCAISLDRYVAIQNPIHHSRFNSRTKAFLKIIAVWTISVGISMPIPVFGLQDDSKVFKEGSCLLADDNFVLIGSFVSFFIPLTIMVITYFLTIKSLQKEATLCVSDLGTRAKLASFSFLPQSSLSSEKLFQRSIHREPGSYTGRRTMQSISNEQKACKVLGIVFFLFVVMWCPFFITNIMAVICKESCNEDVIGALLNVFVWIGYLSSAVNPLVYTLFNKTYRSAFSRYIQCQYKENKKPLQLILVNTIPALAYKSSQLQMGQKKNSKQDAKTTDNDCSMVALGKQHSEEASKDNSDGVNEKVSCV

[3] = target: T2, 5HT2c (Homo sapiens, UniProt P28335); experiment: receptor binding assay at human 5HT2c receptor; conditions: an amorphous salt of Formula I was tested
T2 sequence (P28335 33-458): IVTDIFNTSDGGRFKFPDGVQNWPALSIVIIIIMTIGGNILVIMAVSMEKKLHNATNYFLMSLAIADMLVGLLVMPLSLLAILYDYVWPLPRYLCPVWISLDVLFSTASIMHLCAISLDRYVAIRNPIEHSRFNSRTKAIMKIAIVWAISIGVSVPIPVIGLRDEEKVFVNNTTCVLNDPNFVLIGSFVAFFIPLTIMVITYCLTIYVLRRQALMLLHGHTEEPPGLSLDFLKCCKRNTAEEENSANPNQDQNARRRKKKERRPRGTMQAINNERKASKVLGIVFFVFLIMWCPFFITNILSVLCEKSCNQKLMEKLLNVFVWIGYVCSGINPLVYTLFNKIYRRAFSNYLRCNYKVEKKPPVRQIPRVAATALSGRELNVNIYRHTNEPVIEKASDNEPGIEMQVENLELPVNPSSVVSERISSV
Protocol: (§1) An amorphous salt of Formula I was tested in accordance with the binding assay procedures at human receptors provided in U.S. application Ser. No. 11/395,327, and the following receptor binding data for the compound of Formula I was obtained: […]

[4] = target: T3, 5HT2b (Homo sapiens, UniProt P41595); experiment: functional activity at the 5-HT2b receptor
T3 sequence (P41595 whole entry): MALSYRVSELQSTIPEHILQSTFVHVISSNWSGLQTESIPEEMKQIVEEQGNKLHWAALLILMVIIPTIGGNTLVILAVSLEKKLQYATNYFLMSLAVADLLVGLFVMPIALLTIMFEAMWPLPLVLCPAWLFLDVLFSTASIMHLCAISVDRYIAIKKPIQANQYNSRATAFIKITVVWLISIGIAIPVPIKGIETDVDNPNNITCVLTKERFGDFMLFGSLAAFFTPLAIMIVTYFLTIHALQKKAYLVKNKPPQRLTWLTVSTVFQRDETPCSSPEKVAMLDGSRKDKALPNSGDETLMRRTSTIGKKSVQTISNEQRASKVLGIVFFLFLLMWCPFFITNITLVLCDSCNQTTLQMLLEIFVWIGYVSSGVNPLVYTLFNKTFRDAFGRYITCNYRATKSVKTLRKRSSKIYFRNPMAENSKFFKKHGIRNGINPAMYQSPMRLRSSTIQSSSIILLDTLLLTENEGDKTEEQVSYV
Source text: (§2) Formula I of the present invention is functionally selective for 5-HT2c against 5-HT2a and 5-HT2b, by virtue of its much greater agonistic potency (lower EC50) for 5-HT2c than that observed for 5-HT2a and/or 5-HT2b or its lack of agonistic activity at 5-HT2a and/or 5-HT2b.

[5] = target: T3, 5HT2b; experiment: receptor binding assay at human 5HT2b receptor; conditions: an amorphous salt of Formula I was tested
Protocol: as §1

[6] = target: T1, 5HT2a; experiment: functional activity at the 5-HT2a receptor
Source text: as §2

[7] = target: T2, 5HT2c; experiment: functional activity at the 5-HT2c receptor
Source text: as §2

[8] = cited from earlier work
[9] = cited from earlier work; remark: listed apart in the source

## Cc1ccc(F)cc1CO[C@H]1CCc2ccc(N3CCNC[C@H]3C)nc21.O=C(O)C(O)C(O)C(=O)O [(S)-7-(5-Fluoro-2-methyl-benzyloxy)-2-((R)-2-methyl-piperazin-1-yl)-6,7-dihydro-5H-[1]pyrindine L(+)-tartrate]
[1]; at 90±2% relative humidity, isothermal (25.1±0.1° C.) moisture sorption from approximately 1% to 90% (±2%) humidity
  increase in weight (moisture sorption): Less than 0.5%
[1]; dynamic vapor sorption, isothermal at 25° C.
  hygroscopicity assessment: non-hygroscopic

## Cc1ccc(F)cc1CO[C@H]1CCc2ccc(N3CCNC[C@H]3C)nc21 [Formula I, (7S)-7-[(5-fluoro-2-methyl-benzyl)oxy]-2-[(2R)-2-methylpiperazin-1-yl]-6,7-dihydro-5H-cyclopenta[b]pyridine]
[2]
  Ki: 4.5 nM
[3]
  Ki: 1.5 nM
[4]
  functional activity at the 5-HT2b receptor: antagonist
[5]
  Ki: 7.7 nM
[6]
  functional activity at the 5-HT2a receptor: antagonist or weak partial agonist
[7]
  functional activity at the 5-HT2c receptor: potent, high affinity agonist

## O=C1Cc2cc(CCN3CCN(c4nsc5ccccc45)CC3)c(Cl)cc2N1 [Ziprasidone, 5-[2-[4-(1,2-benzisothiazol-3-yl)piperazin-1-yl]ethyl]-6-chloroindolin-2-one]
[8]
  protein binding: extensive
[9]; in vivo
  half-life: 6 to 7 h
[9]; taken with food
  oral bioavailability: approximately 60%
